Measurements from ChEMBL document CHEMBL1157334, “Neuroprotective diterpenes from the fruiting body of Antrodia camphorata” (2006).

Assays:
[1] = Neuroprotective effect against amyloid beta(25 to 35)-induced cell death in Harlan Sprague-Dawley rat pups cortical neurons assessed as cell death at 20 uM treated 2 hrs before amyloid beta(25 to 35) treatment after 40 hrs by MTT assay; conditions: for cell death at 20 µM: Rattus norvegicus, Harlan Sprague-Dawley, Cortical neurone
[2] = Neuroprotective effect against amyloid beta(25 to 35)-induced cell death in Harlan Sprague-Dawley rat pups cortical neurons assessed as cell death at 10 uM treated 2 hrs before amyloid beta(25 to 35) treatment after 40 hrs by MTT assay

C=C1CC[C@H]2[C@@](C)(CO)CCC[C@]2(C)[C@H]1CCC1CCOC1=O (some centres not stated)
cell death at 20 µM [1]: 30.8%

C=C1CC[C@H]2[C@@](C)(CO)CCC[C@]2(C)[C@H]1CCC1=CCOC1=O
cell death at 20 µM [1]: 32.6%

C=C1CC[C@@H]2[C@](C)(CC[C@H](O)[C@]2(C)CO)[C@H]1/C=C/C1CCOC1=O (stereo in doubt; 2)
cell death [2]: 29.5%
cell death [1]: 26.3%

C=C1CC[C@@H]2[C@](C)(CO)[C@H](O)CC[C@@]2(C)[C@@H]1/C=C/C1=CCOC1=O
cell death at 20 µM [1]: 29.5%

CC(=O)N[C@@H](CC(=O)O)C(=O)N[C@@H](CCC(=O)O)C(=O)N[C@H](C(=O)N[C@H](C=O)CC(=O)O)C(C)C
cell death at 20 µM [1]: 23.1%

C=C1CC[C@@H]2[C@](C)(CC[C@H](O)[C@]2(C)CO)[C@H]1/C=C/C1CCOC1=O (stereo in doubt; 3)
cell death at 20 µM [1]: 29.3%
